Assays:
Assay in all cases: Preemergence field plot evaluation of percent weed control
Assay type in all cases: in vivo
Conditions in all cases: visual, 60 days after application
[1] = tested on: Poa annua
Description: (§1) In the following examples, synergism is determined by the Colby^1 method, i.e. the expected (or predicted) response of the combination is calculated by taking the product of the observed response for each individual component of the combination when applied alone divided by 100 and subtracting this value from the sum of the observed response for each component when applied alone. Synergism of the combination is then determined by comparing the observed response of the combination to the expected (or predicted) response as calculated from the observed response of each individual component alone.
(§2) The foregoing is illustrated mathematically below, wherein a combination, C, is composed of component A plus component B and Obs. designates the observed response of the combination C. [formula]
(§3) Formulations containing imazamox^1, pendimethalin^2 and an imazamox/pendimethalin combination^3 are diluted with water and applied preemergence at volumes of 200 L/ha to 400 L/ha to field plots to provide the rates shown in Table I. 60 days after application, the plots are visually evaluted for percent weed control. The results are summarized in Table I. If more than one plot is included in an evaluation, the results are averaged.
(§4) ^1 BOLERO® 40 SL, an imazamox aqueous concentrate commercially available from American Cyanamid Company, Parsippany, N.J.
(§5) ^2 STOMP® 400 SC, a pendimethalin suspension concentrate commercially available from American Cyanamid Company, Parsippany, N.J.
(§6) ^3 An emulsifiable concentrate containing imazamox and pendimethalin.

[2] = tested on: Polygonum persicaria
Description: as §1, §2, §3, §4, §5, §6

[3] = tested on: Setaria verticilliata
Description: as §1, §2, §3, §4, §5, §6

| SMILES | % Weed Control Observed ([1]; imazamox 75 g/ha alone) | % Weed Control Observed ([2]; imazamox 75 g/ha alone) | % Weed Control Observed ([3]; imazamox 75 g/ha alone) | % Weed Control Observed ([1]; pendimethalin 1,125 g/ha alone) | % Weed Control Observed ([2]; pendimethalin 1,125 g/ha alone) | % Weed Control Observed ([3]; pendimethalin 1,125 g/ha alone) |
| --- | --- | --- | --- | --- | --- | --- |
| COCc1cnc(C2=NC(C)(C(C)C)C(=O)N2)c(C(=O)O)c1 (stereo not drawn) [Imazamox, 2-(4-isopropyl-4-methyl-5-oxo-2-imidazolin-2-yl)-5-(methoxymethyl)nicotinic acid] | 68% | 66% | 45% | – | – | – |
| CCC(CC)Nc1c([N+](=O)[O-])cc(C)c(C)c1[N+](=O)[O-] [Pendimethalin] | – | – | – | 63% | 76% | 86% |

From US6890887B2, “Synergistic herbicidal methods and compositions comprising dinitroaniline and imidazolinone compounds” (BASF Aktiengesellschaft, priority 1999, dated 2005)
